Where a SMILES comes first, the peptide text is derived from it. The star is where a group is joined. Cbz = O=C(OCc1ccccc1)*
What was measured:
[1] = Chemical stability of HNE(alkyne); format: physicochemical; conditions: air
Method: (iv) Isolate the pure product via flash chromatography using hexanes: Et20 (4:1 v/v) as eluent (Rf=0.5 in hexanes: Et2O 4:1). […] The purified material should be characterized promptly and during this time may be stored under Ar at room temperature. For long-term storage, HNE(alkyne) should be stored as one-shot aliquots in DMSO at −80° C. and must be used immediately once thawed.

PTEN = molecular target: T1, PTEN (Homo sapiens, UniProt P60484); experiment: InPAkt FRET biosensor assay of PIP3 after PTEN-targeted T-REX; format: cell-based
T1 construct: host or cells: HEK-293
Method: (ii) Transfect each plate with 1000 ng of Halo-PTEN and 1000 ng of InPAkt reporter plasmid. Transfect with TransIT-2020 following the manufacturer's protocol.
(iv) Treatment of cells with T-REX™ delivery photocaged precursor, photo-uncaging and cell fixing. Treat the cells with photocaged precursor as described in Section 2, Step 39A. The amounts of reagents used should be scaled up for 4×35 mm adherent culture dish.
(v) Irradiate the cells with UV light only for 3 min. After shining light on the sample. Incubate the plates at 37° C. for 10 hours. Longer irradiation time will result in photobleaching of the FRET reporter proteins.
(vi) Imaging and data analysis. […] Blue laser (408 nm) is used for excitation. Record the signals in cyan channel (463-498 nm) and yellow channel (525-620 nm).
(vii) Analyse the images using ImageJ software (NIH). To do this, determine the average cyan and yellow fluorescence intensity for each cell by drawing a free hand circle around the image. Repeat this for each condition such that 150-200 cells were analyzed each time from multiple different frames. Calculate the ratio of mean yellow to mean cyan fluorescence intensity for each condition, then plot these values and analyse the results using prism. To get reliable results, it is important to collect images from at least 150 individual cells per condition.

γ-H2AX [2] = experiment: T-REX in zebrafish embryos, whole-mount γ-H2AX immunofluorescence; format: in vivo, zebrafish (Danio rerio); conditions: 3 h post light exposure
Method: (§1) Fertilized eggs at the 1-2 cell stage from casper zebrafish were injected with mRNA (1.6 mg/ml) into the yolk sack. Immediately after injection, embryos were pooled, and separated into two petri dishes (10 cm) filled with 30 mL 10% Hank's salt solution with methylene blue and penicillin (100 U/mL)/streptomycin (100 μg/ml). To one set was added the HaloTag-targetable photocaged precursor to HNE (Ht-PreHNE, hereafter) (<15 μM) and the other DMSO in the dark. Embryos were maintained at 28° C. in the dark for 28 h then they were washed in 10% Hank's solution with no methylene blue/antibiotic (3 times for 30 min each). Embryos were moved to 6-well plates. Half of the embryos (Ht-preHNE-treated or -untreated) were irradiated with UV light (5 min), and the other half of each set was not irradiated. Embryos were left for 8 h at which point they were euthanized, washed with cold 1×DPBS and dechorionated (and deyolked if protein analysis was to be undertaken).
DDR preconditioning occurs in zebrafish embryos. […] Subsequently, the fish were fixed and γ-H2AX levels were measured using whole-mount immunofluorescence.

[3] = test system: Ube2V2 ubiquitination and cellular Ub pools; experiment: Ubiquitination analysis by IP, K63-TUBE pulldown and western blot in HEK293T cells; format: cell-based, human; conditions: for amount of ubiquitinated-Ube2V2 formed upon targeted-HNEylation: proteasome inhibitor treatment with T-REX
Method: Cells were lysed in 1×RIPA buffer containing in final concentrations 1× Protease inhibitor, 1 mM sodium orthovanadate and 1 mM PMSF, by rapid freeze-thaw (×3). Cell debris was removed and the supernatant was collected after centrifugation at 18,000×g for 20 min at 4° C. Protein concentration was determined using Bradford assay. 30-50 μg of total lysates were subjected to SDS-PAGE and the gel was transferred onto a PVDF membrane at 100 V for 1 h at 4° C. or at 40 V overnight at 4° C. Membrane was blocked with 10% milk and probed with various antibodies at the indicated dilutions (Table 4, above).
HEK 293T cells were seeded in 2×60 cm^2 plates. After the cells reached 60% confluence (˜18-24 h), the old media was replaced with 8 mL of fresh complete media. Cells were transfected with 7.5 μg of the designated Halo clone and 30 μL PEI (1 mg/mL) in 600 μL in Opti-MEM media for 24-36 h after which the cells were treated with 25 μM Ht-PreHNE for 2.5 h. Rinsing and light shining protocol were as described above. Cells were harvested, pooled, washed twice with chilled 1×DPBS and flash frozen. Cell lysis was performed in 100-200 μL per 1.5×10^6 cells of either: lysis buffer [containing in final concentrations 50 mM HEPES (pH 7.6), 150 mM NaCl, 1% Nonidet P-40 and 1× Roche cOmplete, mini, EDTA-free protease inhibitor cocktail] for Flag pull down; or RIPA buffer [containing in final concentrations 50 mM HEPES (pH 7.6), 150 mM NaCl, 1% Nonidet P-40, 0.1% SDS, 0.25% sodium deoxycholate, and 1× Roche cOmplete, mini, EDTA-free protease inhibitor cocktail] for HA pull down, followed by rapid freeze-thaw cycles (×3). Lysate was clarified by centrifugation at 18,000×g for 10 min at 4° C. Total protein concentration was determined using Bradford assay with BSA as standard. The lysate was subsequently diluted to 2 mg/mL with binding buffer containing in final concentrations 50 mM HEPES (pH 7.6), 150 mM NaCl, 1× Roche cOmplete, mini, EDTA-free protease inhibitor cocktail, and 0.1% Tween-20. This diluted lysate was subjected to either 50-100 μL bed volume of ANTI-FLAG® M2 affinity gel (A2220, Sigma) or monoclonal anti-HA-agarose (clone HA-7, A2095, Sigma) that had been pre-equilibrated with the binding buffer above. The sample was incubated with beads for 2-3 h at 4° C. by end-over-end rotation after which time the supernatant was removed post-centrifugation at 1000×g (anti-FLAG pull down) or 5000×g (anti-HA pull down) for 3 min. The beads were washed three times at 4° C. with 500 μL wash buffer containing in final concentrations 50 mM HEPES (pH 7.6), 150 mM NaCl, 1× Roche cOmplete, mini, EDTA-free protease inhibitor cocktail, and 0.1% Tween-20, using end-over-end rotation over 10 min during each wash. The bound protein was eluted by either incubating with 0.15 mg/mL 3× flag peptide for 2 h at 4° C. (anti-Flag pull down) or by boiling the beads at 98° C. for 10 min with 30 μL of 3× Laemmeli dye containing 6% βME (anti-HA pull down). The sample was subjected to SDS-PAGE and transferred to a PVDF membrane for western blot analysis described above.
Cells were grown and transfected as described above. After T-REX™ delivery, cells were harvested and lysed in 100-200 μL (˜1.5×10^6 cells) of lysis buffer [containing in final concentrations 50 mM HEPES (pH 7.6), 300 nM Biotin K63-TUBE, 150 mM NaCl, 5 mM EDTA, 3 mM 1,10-phenanthroline, 5 mM NEM, 20 μM PR-619, 1% Nonidet P-40 and 1× Roche cOmplete, mini, EDTA-free protease inhibitor cocktail] according to manufactures' manual (Biotin K63 TUBE, Lifesensors). Lysate was clarified by centrifugation at 18,000×g for 10 min at 4° C. Total protein concentration was determined using Bradford assay using BSA as standard. […]

zebrafish embryos = experiment: Zebrafish embryo morphology and survival, stereomicroscope; format: in vivo, zebrafish (Danio rerio)
Text: Fish were then dechorionated, deyolked, lysed and HNEylated proteins were captured by Click coupling with biotin-azide and subsequent streptavidin pulldown (see workflow in FIG. 4A, Clicking with biotin-azide). HNEylation of Ube2V2 in fish also led to polyubiquitination of Ube2V2, indicating mechanistic conservation between fish and humans, and functional relevance of this electrophile regulatory pathway in vivo. Also see FIG. 14C. […] After 36-h fish were dechorionated and imaged using a stereomicroscope. Scale bars, 545 μm.
as §1, with “Embryos were left for 8 h at which point they were euthanized, washed with cold 1×DPBS and dechorionated (and deyolked if protein analysis was to be undertaken).” left out

γ-H2AX [4] = experiment: γ-H2AX immunofluorescence in HEK293T cells; format: cell-based, human
Method: Cells were grown to 70% confluence in 35 mm glass-bottomed dishes and transfected with HaloTagged plasmids. T-REX™ delivery was performed as mentioned above. […] The fixative was aspirated and the cells washed three times with 1×DPBS with 5-min incubation at room temperature. Blocking and permeabilization was performed in one-step by incubation at 37° C. for 1 h in 1×DPBS containing 3% BSA and 0.2% Triton X-100. Cells were subsequently incubated with primary antibody (1:300, Table 4) in incubation buffer (1% BSA, 0.02% Triton X-100 in 1×DPBS) for 2 h at room temperature. Cells were rinsed 3 times with 1×DPBS with 5 min incubation for each wash and subsequently incubated in dark for 1 h at room temperature with corresponding second antibody (1:1000, Table 4) in incubation buffer. Cells were rinsed 3 times with 1×DPBS with 5 min incubation for each rinse. DAPI (Sigma) was freshly prepared in 1×DPBS from 2 mg/mL wt./v stock solution in water and added to the wells at the final concentration of 0.2 μg/mL. The samples were incubated in dark for 1 min and washed once with 1×DPBS and stored at 4° C. in dark till images were taken using a Zeiss LSM 710 meta confocal fluorescence microscope. Image analysis was performed using Image-J (NIH).

Ube2N = experiment: Lentiviral shRNA knockdown of Ube2N, western blot; format: cell-based, human
Method: HEK293T packaging cells were seeded and grown overnight in antibiotic free media in 6 well plates. At 80% confluence, each well was transfected with packaging plasmid (pCMV-R8.74psPAX2, 500 ng), envelope plasmid (pCMV-VSV-G, 50 ng) and pLKO vector (500 ng) using TransIT.LT1 as per the manufacturer's protocol. After 18 h, media were removed and replaced with 20% serum containing media. After 24 h, media containing viruses were collected, spun down and passed through a 0.6 micron filter and stored at −80° C. or used directly.
Cells in log phase were treated with 0.6 ml of virus supernatant (from above) in 8 μg/ml polybrene in a total of 6 ml of media in a 6-well plate. After 24 h, media were removed and replaced with media containing 2 μg/ml puromycin (which was completely toxic to all lines used in this study). Cells were cultured until the plate was confluent, then cells were split and moved to a 10 cm dish in 2 μg/ml puromycin containing media and grown again until reaching confluence. At this, the line was considered to be “selected”, and target gene expression was analyzed by western blot and compared to shRNA controls. […]
Cells were lysed in 1×RIPA buffer containing in final concentrations 1× Protease inhibitor, 1 mM sodium orthovanadate and 1 mM PMSF, by rapid freeze-thaw (×3). […] Protein concentration was determined using Bradford assay. […]

T1 sequence (P60484 whole entry): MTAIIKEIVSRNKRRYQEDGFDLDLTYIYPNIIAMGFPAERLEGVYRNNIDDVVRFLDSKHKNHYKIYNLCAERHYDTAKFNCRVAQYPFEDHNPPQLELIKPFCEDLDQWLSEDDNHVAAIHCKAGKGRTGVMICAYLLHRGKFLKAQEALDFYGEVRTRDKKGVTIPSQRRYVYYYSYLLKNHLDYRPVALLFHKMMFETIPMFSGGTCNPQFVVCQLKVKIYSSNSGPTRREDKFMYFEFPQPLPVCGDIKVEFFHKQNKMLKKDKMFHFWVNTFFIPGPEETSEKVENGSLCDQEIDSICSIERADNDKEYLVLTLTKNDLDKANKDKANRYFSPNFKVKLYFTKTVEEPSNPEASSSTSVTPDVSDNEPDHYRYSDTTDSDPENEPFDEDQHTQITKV

## C#CCCCC(O)C=CC=O (stereo not drawn) [HNE(alkyne), 4-hydroxynonenal alkyne]
[1]
  stability: highly unstable to air-oxidation and polymerization

## C#CCCCC(O)/C=C/COc1c(CC(=O)NCCOCCOCCCCCCCl)ccc2c1C(=O)c1ccccc1C2=O (stereo not drawn) [Ht-PreHNE]
PTEN; T-REX on Halo-PTEN vs light alone
  FRET signal: selectively enhances FRET signal
PTEN; precursor treatment alone, no light
  YFP:CFP emission ratio: did not perturb the emission ratio significantly
γ-H2AX [2]
  γ-H2AX levels in zebrafish embryos: regulates γ-H2AX levels in zebrafish

## CC(C)C[C@@H](C=O)NC(=O)[C@H](CC(C)C)NC(=O)[C@H](CC(C)C)NC(=O)OCc1ccccc1 [MG132] (Cbz-Leu-Leu-Leu-aldehyde)
[3]; HEK293T
  pan cellular poly-Ub-pools: elevated pan-Ub-pools
[3]
  amount of ubiquitinated-Ube2V2 formed upon targeted-HNEylation: had no effect on the amount of ubiquitinated-Ube2V2

## CO[C@@]12[C@H](COC(N)=O)C3=C(C(=O)C(C)=C(N)C3=O)N1C[C@@H]1N[C@@H]12 [Mitomycin-C]
Zebrafish embryos
  embryo deformity / death: severely deformed or died during treatment
γ-H2AX [4]
  γ-H2AX in Ube2V2-C69S-expressing and Ube2N-deficient cells: still upregulated γ-H2AX
γ-H2AX [4]; positive control
  γ-H2AX upregulation: 3-4 fold
γ-H2AX [2]
  γ-H2AX levels in zebrafish embryos: high level of γ-H2AX-expression relative to untreated fish

## N#CSc1cc(SC#N)c(N)nc1N [PR-619]
[3]; HEK293T
  K63-linked total cellular Ub pools: promoted elevation of K63-ubiquitination
  ubiquitination of Ube2V2 wt vs C69S: promote ubiquitination of Ube2V2(C69S) as efficiently as wt-Ube2V2

## CC(C)C[C@H](NC(=O)[C@H](Cc1ccccc1)NC(=O)c1cnccn1)B(O)O [bortezomib]
[3]; HEK293T
  pan cellular poly-Ub-pools: elevated pan-Ub-pools
[3]
  amount of ubiquitinated-Ube2V2 formed upon targeted-HNEylation: had no effect on the amount of ubiquitinated-Ube2V2

## #18: shRNA targeting Ube2N in pLKO1 vector (SEQ ID NO: 65) (CCGGGCTGAGGCATTTGTGAGTCTTCTCGAGAAGACTCACAAATGCCTCAGCTTTTT)
Ube2N
  Ube2N knockdown strength: weaker knockdown
